Experimental data reported in the NIST ThermoML archive (doi:10.1021/acs.jced.6b00526).

Assay: xn = mol fraction of the nth substance listed
Details: 100 kPa, Liquid; for mass density: Vibrating tube method; for viscosity: Falling or rolling sphere viscometry

OCCO [1,2-ethanediol] + O
Details	mass density, 288.15 K [kg/m3]	mass density, 293.15 K [kg/m3]	mass density, 298.15 K [kg/m3]	mass density, 303.15 K [kg/m3]	mass density, 308.15 K [kg/m3]	mass density, 313.15 K [kg/m3]	mass density, 318.15 K [kg/m3]	viscosity, 293.15 K [mPa·s]	viscosity, 298.15 K [mPa·s]	viscosity, 303.15 K [mPa·s]
x2 = 0	–	1113.3	–	1106.8	–	1099.1	–	21.13	17.24	14.23
x2 = 0.1037	1114.7	1111.1	1108	1104.4	1100.5	1096.7	1093.8	–	–	–
x2 = 0.1105	–	–	–	–	–	–	–	17.58	14.33	11.86
x2 = 0.1593	1113.6	–	1106.9	–	1099.3	1095.4	1092.4	–	–	–
x2 = 0.2014	–	–	–	–	–	–	–	14.95	12.19	10.14
x2 = 0.2189	1111.9	1108.3	1105.2	1101.6	1097.6	1093.7	1090.7	–	–	–
x2 = 0.2669	–	1106.8	1103.6	1100.1	–	1092.1	–	–	–	–
x2 = 0.3002	–	–	–	–	–	–	–	12.4	10.18	8.45
x2 = 0.3165	1108.3	1104.8	1101.7	1098.2	1094.2	1090.3	1087.3	–	–	–
x2 = 0.3496	1106.8	–	1100.3	1096.8	1092.9	–	1086	–	–	–
x2 = 0.3994	1104.4	1101.1	1098	1094.4	1090.6	1086.9	1083.9	–	–	–
x2 = 0.4011	–	–	–	–	–	–	–	10.05	8.31	6.968
x2 = 0.4449	1101.8	1098.5	–	1092.2	1088.4	1084.6	1081.6	–	–	–
x2 = 0.4969	–	–	–	–	–	–	–	8.185	6.791	5.653
x2 = 0.5061	1098	1094.8	1091.8	1088.5	1084.7	1081.1	1078.1	–	–	–
x2 = 0.5563	1094.5	1091.4	1088.4	1085.1	1081.3	1077.8	1074.6	–	–	–
x2 = 0.6022	–	–	–	–	–	–	–	6.297	5.208	4.396
x2 = 0.6055	1090.6	1087.4	1084.5	1081.3	1077.6	1074	1071.1	–	–	–
x2 = 0.6518	1085.7	1082.6	1079.7	1076.5	1072.9	1069.5	1066.3	–	–	–
x2 = 0.6995	–	–	–	–	–	–	–	4.584	3.884	3.345
x2 = 0.7001	1079.8	1076.8	1073.7	1070.6	1067.3	1064	1060.7	–	–	–
x2 = 0.7482	1072.6	1069.7	1066.7	1063.7	1060.6	1057.4	1054.3	–	–	–
x2 = 0.7994	–	–	–	–	–	–	–	3.122	2.682	2.328
x2 = 0.8015	1063	1060.1	1057.4	1054.5	1051.5	1048.4	1045.6	–	–	–
x2 = 0.8444	1052.6	1050.2	1048	1045.5	1042.6	1039.6	1037.1	–	–	–
x2 = 0.8997	–	–	–	–	–	–	–	1.918	1.664	1.446
x2 = 0.901	1036.4	1034.6	1032.8	1030.7	1028	1025.4	1023.5	–	–	–

OCCCCO [1,4-butanediol] + O
Details	mass density, 288.15 K [kg/m3]	mass density, 293.15 K [kg/m3]	mass density, 298.15 K [kg/m3]	mass density, 303.15 K [kg/m3]	mass density, 308.15 K [kg/m3]	mass density, 313.15 K [kg/m3]	mass density, 318.15 K [kg/m3]	viscosity, 293.15 K [mPa·s]	viscosity, 298.15 K [mPa·s]	viscosity, 303.15 K [mPa·s]
x2 = 0	1018.6	1016.3	1012.9	1009.9	1006.9	1003.2	1000.8	90.7	69.89	55.24
x2 = 0.0992	1020.8	1018.3	1014.8	1011.8	1008.9	1005.2	1002.6	–	–	–
x2 = 0.1257	–	–	–	–	–	–	–	75.28	57.95	45.05
x2 = 0.152	1021.8	1019.3	1015.8	1012.8	1009.8	1006.1	1003.4	–	–	–
x2 = 0.2039	1022.8	1020.3	1016.7	1013.7	1010.6	1006.9	1004.2	–	–	–
x2 = 0.2513	1023.6	1021.1	1017.6	1014.5	1011.4	1007.6	1004.9	–	–	–
x2 = 0.2783	–	–	–	–	–	–	–	58.11	44.52	33.59
x2 = 0.3003	1024.5	1021.9	1018.3	1015.2	1012.1	1008.3	1005.6	–	–	–
x2 = 0.3033	–	–	–	–	–	–	–	54.65	42	31.63
x2 = 0.3534	1025.3	1022.7	1019.1	1015.9	1012.8	1009	1006.3	–	–	–
x2 = 0.4009	–	–	–	–	–	–	–	44.04	33.94	25.07
x2 = 0.4399	1026.2	1023.6	1020	1016.8	1013.6	1009.8	1007.1	–	–	–
x2 = 0.4482	1026.6	1024	1020.3	1017.1	1013.9	1010.1	1007.3	–	–	–
x2 = 0.5008	–	–	–	–	–	–	–	33.85	25.34	18.65
x2 = 0.5011	1027.2	1024.5	1020.8	1017.7	1014.5	1010.6	1007.8	–	–	–
x2 = 0.5515	1027.6	1025	1021.1	1017.9	1014.8	1010.9	1008.1	–	–	–
x2 = 0.6114	1027.7	1025.1	1021.3	1018.2	1015.1	1011.2	1008.3	–	–	–
x2 = 0.6527	1027.6	1025	1021.3	1018.1	1015.1	1011.2	1008.4	–	–	–
x2 = 0.6662	–	–	–	–	–	–	–	19.58	13.9	10.11
x2 = 0.7003	–	–	–	–	–	–	–	16.6	11.57	8.774
x2 = 0.7005	1027.2	1024.5	1021	1017.8	1014.8	1011	1008.3	–	–	–
x2 = 0.7501	1026.3	1023.6	1020.1	1016.9	1013.9	1010.3	1007.4	–	–	–
x2 = 0.7998	1024.2	1021.5	1018.3	1015.3	1012.5	1008.9	1006.2	–	–	–
x2 = 0.8013	–	–	–	–	–	–	–	9.634	6.814	5.035
x2 = 0.8492	1021.3	1018.9	1015.8	1012.9	1010.2	1007.1	1004	–	–	–
x2 = 0.8979	–	–	–	–	–	–	–	4.127	3.267	2.369
x2 = 0.9001	1015.9	1014.1	1011.7	1009.2	1006.7	1003.6	1000.9	–	–	–
x2 = 0.9488	1008.1	1006.7	1004.7	1003.3	1001.1	998.7	996.2	–	–	–

OCCCCCO [1,5-pentanediol] + O
Details	mass density, 288.15 K [kg/m3]	mass density, 293.15 K [kg/m3]	mass density, 298.15 K [kg/m3]	mass density, 303.15 K [kg/m3]	mass density, 308.15 K [kg/m3]	mass density, 313.15 K [kg/m3]	mass density, 318.15 K [kg/m3]	viscosity, 293.15 K [mPa·s]	viscosity, 298.15 K [mPa·s]	viscosity, 303.15 K [mPa·s]
x2 = 0	992.2	989.2	986.2	983.2	980.3	977.4	974.8	118.7	86.79	68.3
x2 = 0.1326	995.2	992.1	989	985.9	982.9	979.9	977.3	–	–	–
x2 = 0.2201	997	993.9	990.8	987.7	984.7	981.7	979	–	–	–
x2 = 0.2345	997.3	994.2	991	988	985	982	979.3	–	–	–
x2 = 0.2586	–	–	–	–	–	–	–	92.52	70.36	54.61
x2 = 0.3	–	–	–	–	–	–	–	85.43	65.59	51.03
x2 = 0.3001	998.6	995.5	992.4	989.3	986.3	983.3	980.6	–	–	–
x2 = 0.406	1000.7	997.6	994.5	991.4	988.5	985.5	982.8	–	–	–
x2 = 0.4864	–	–	–	–	–	–	–	51.43	39.51	31
x2 = 0.4969	1002.6	999.5	996.4	993.4	990.5	987.6	985	49.66	38.56	30.24
x2 = 0.5262	1003.2	1000.2	997.1	994.1	991.2	988.3	985.7	–	–	–
x2 = 0.5488	1003.7	1000.7	997.7	994.7	991.8	988.9	986.3	–	–	–
x2 = 0.6032	1004.8	1001.9	998.9	996	993.1	990.2	987.6	–	–	–
x2 = 0.6777	–	–	–	–	–	–	–	25.01	19.75	15.78
x2 = 0.7012	1006.6	1003.8	1000.9	998	995.2	992.3	989.8	–	–	–
x2 = 0.7611	–	–	–	–	–	–	–	16.1	12.71	10.16
x2 = 0.7745	1007.1	1004.6	1001.9	999.1	996.4	993.7	991.2	–	–	–
x2 = 0.8051	1007	1004.6	1002.1	999.5	996.7	994.1	991.6	–	–	–
x2 = 0.8474	–	–	–	–	–	–	–	8.205	6.627	5.439
x2 = 0.8998	1005.3	1003.2	1000.9	998.6	996.3	993.9	992	–	–	–
x2 = 0.9205	–	–	–	–	–	–	–	3.733	3.103	2.615
